Experiments:
[1] = target: Ribosomal protein S6 kinase alpha-5 (Homo sapiens) (UniProt O75582); test: Binding affinity to wild-type human partial length N-terminal RPS6KA5 kinase domain 1 expressed in bacterial expression system assessed as residual binding level at 1 uM by Kinomescan method relative to control
[2] = target: BMP-2-inducible protein kinase (Homo sapiens) (UniProt Q9NSY1); test: Binding affinity to wild-type human partial length BIKE (S34 to N329 residues) expressed in bacterial expression system assessed as residual binding level at 1 uM by Kinomescan method relative to control
[3] = target: Protein-tyrosine kinase 6 (Homo sapiens) (UniProt Q13882); test: Binding affinity to wild-type human partial length BRK (L166 to T451 residues) expressed in bacterial expression system assessed as residual binding level at 1 uM by Kinomescan method relative to control
[4] = target: Serine/threonine-protein kinase Nek11 (Homo sapiens) (UniProt Q8NG66); test: Binding affinity to wild-type human partial length NEK11 (M1 to E313 residues) expressed in mammalian expression system assessed as residual binding level at 1 uM by Kinomescan method relative to control
[5] = target: BDNF/NT-3 growth factors receptor (Homo sapiens) (UniProt Q16620); test: Binding affinity to wild-type human partial length TRKB (Q547 to G838 residues) expressed in mammalian expression system assessed as residual binding level at 1 uM by Kinomescan method relative to control
BDNF/NT-3 growth factors receptor (Homo sapiens), sequence (Q16620 32-822 limits assumed): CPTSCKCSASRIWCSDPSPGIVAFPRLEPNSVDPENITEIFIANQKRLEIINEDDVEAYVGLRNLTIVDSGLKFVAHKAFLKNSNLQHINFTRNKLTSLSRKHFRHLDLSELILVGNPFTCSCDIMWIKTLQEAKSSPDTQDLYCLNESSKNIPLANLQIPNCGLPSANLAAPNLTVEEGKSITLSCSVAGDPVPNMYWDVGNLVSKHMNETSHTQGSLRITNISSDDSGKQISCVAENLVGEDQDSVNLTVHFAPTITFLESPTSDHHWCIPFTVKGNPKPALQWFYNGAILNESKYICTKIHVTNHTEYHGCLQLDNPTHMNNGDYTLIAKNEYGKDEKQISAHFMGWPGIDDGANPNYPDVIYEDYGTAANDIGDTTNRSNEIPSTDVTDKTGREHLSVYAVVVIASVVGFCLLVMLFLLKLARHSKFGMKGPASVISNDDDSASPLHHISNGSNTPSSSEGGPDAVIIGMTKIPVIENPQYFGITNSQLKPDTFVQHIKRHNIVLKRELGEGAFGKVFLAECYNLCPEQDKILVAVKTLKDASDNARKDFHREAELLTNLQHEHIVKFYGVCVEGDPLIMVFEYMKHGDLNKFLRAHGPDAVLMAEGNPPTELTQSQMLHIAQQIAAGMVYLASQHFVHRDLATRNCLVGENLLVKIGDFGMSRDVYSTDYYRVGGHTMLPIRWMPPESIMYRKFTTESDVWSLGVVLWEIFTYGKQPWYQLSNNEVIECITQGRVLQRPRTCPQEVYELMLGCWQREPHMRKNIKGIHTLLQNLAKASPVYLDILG

[6] = tested on: Tyrosine-protein kinase ABL1 (Homo sapiens), P00519 [T315I]; test: Binding affinity to human non-phosphorylated ABL1 T315I mutant (S229 to K512 residues) expressed in mammalian expression system assessed as residual binding level at 1 uM by Kinomescan method relative to control
[7] = target: Wee1-like protein kinase 2 (Homo sapiens) (UniProt P0C1S8); test: Binding affinity to wild-type human partial length WEE2 (M204 to K492 residues) expressed in bacterial expression system assessed as residual binding level at 1 uM by Kinomescan method relative to control
Wee1-like protein kinase 2 (Homo sapiens), sequence (P0C1S8 whole entry, looked up, the tested form may be a part): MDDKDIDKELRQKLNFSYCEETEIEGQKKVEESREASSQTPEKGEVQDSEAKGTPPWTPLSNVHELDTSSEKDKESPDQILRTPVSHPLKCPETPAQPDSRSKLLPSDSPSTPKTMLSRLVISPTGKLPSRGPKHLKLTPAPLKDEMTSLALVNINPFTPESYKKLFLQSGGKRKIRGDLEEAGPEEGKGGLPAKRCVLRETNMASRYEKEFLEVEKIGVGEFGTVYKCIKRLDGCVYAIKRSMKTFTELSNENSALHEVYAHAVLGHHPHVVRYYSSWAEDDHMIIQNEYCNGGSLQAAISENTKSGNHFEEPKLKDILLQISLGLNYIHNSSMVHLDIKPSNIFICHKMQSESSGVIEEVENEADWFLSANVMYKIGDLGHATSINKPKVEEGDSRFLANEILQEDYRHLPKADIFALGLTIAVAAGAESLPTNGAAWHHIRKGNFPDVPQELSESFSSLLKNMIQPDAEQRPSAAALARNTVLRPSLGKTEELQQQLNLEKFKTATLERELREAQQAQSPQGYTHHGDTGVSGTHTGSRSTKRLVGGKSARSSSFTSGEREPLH

[8] = target: Mitogen-activated protein kinase 15 (Homo sapiens) (UniProt Q8TD08); test: Binding affinity to wild-type human partial length ERK8 (M1 to P437 residues) expressed in bacterial expression system assessed as residual binding level at 1 uM by Kinomescan method relative to control
[9] = target: Serine/threonine-protein kinase LATS1 (Homo sapiens) (UniProt O95835); test: Binding affinity to wild-type human partial length LATS1 (Q678 to V1130 residues) expressed in bacterial expression system assessed as residual binding level at 1 uM by Kinomescan method relative to control
[10] = target: Calcium/calmodulin-dependent protein kinase type II subunit gamma (Homo sapiens) (UniProt Q13555); test: Binding affinity to wild-type human partial length CAMK2G (R9 to A303 residues) expressed in bacterial expression system assessed as residual binding level at 1 uM by Kinomescan method relative to control
[11] = target: Dual specificity mitogen-activated protein kinase kinase 3 (Homo sapiens) (UniProt P46734); test: Binding affinity to wild-type human full length MEK3 (M1 to S318 residues) expressed in mammalian expression system assessed as residual binding level at 1 uM by Kinomescan method relative to control
[12] = target: Casein kinase I isoform epsilon (Homo sapiens) (UniProt P49674); test: Binding affinity to wild-type human full length CSNK1E (M1 to K416 residues) expressed in bacterial expression system assessed as residual binding level at 1 uM by Kinomescan method relative to control
[13] = tested on: Receptor-type tyrosine-protein kinase FLT3 (Homo sapiens), P36888 [D835Y]; test: Binding affinity to human partial length FLT3 D835Y mutant (Q580 to Y969 residues) expressed in bacterial expression system assessed as residual binding level at 1 uM by Kinomescan method relative to control
[14] = tested on: Phosphatidylinositol 4,5-bisphosphate 3-kinase catalytic subunit alpha isoform (Homo sapiens), P42336 [I800L]; test: Binding affinity to human partial length PIK3CA I800L mutant (R108 to N1068 residues) expressed in mammalian expression system assessed as residual binding level at 1 uM by Kinomescan method relative to control
Phosphatidylinositol 4,5-bisphosphate 3-kinase catalytic subunit alpha isoform (Homo sapiens), P42336 [I800L], sequence (P42336 whole entry I800L, the tested form may be a part, canonical isoform): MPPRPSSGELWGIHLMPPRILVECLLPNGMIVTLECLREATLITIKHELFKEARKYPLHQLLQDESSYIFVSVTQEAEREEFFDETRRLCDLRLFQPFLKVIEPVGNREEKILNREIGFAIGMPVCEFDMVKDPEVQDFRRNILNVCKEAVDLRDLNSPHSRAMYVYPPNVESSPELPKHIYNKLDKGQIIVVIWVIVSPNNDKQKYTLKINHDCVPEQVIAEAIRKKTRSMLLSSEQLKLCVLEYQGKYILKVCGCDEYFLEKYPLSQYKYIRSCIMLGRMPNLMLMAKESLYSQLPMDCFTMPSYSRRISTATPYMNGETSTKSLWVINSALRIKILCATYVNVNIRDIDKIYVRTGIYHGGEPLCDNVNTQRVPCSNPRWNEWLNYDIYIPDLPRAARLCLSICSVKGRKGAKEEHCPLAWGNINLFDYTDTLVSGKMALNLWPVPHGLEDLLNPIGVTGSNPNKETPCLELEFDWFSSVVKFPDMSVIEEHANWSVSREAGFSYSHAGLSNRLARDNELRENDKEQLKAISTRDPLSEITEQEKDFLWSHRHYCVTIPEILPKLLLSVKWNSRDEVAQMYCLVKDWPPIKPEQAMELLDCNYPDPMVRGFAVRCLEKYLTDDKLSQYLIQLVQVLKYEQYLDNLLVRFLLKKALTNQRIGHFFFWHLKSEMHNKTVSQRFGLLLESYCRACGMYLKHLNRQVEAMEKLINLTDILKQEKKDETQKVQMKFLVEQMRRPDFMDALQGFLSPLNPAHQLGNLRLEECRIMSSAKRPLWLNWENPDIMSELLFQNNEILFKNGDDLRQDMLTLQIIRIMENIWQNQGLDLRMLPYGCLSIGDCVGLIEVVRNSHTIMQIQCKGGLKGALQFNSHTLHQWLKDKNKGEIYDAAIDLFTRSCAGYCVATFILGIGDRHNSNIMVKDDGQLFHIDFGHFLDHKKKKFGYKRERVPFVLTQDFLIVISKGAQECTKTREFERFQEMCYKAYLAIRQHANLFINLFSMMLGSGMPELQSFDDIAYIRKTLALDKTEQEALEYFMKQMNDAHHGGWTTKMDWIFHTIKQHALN

[15] = target: Receptor-interacting serine/threonine-protein kinase 2 (Homo sapiens) (UniProt O43353); test: Binding affinity to wild-type human partial length RIPK2 (M1 to K310 residues) expressed in bacterial expression system assessed as residual binding level at 1 uM by Kinomescan method relative to control
Receptor-interacting serine/threonine-protein kinase 2 (Homo sapiens), sequence (O43353 whole entry, the tested form may be a part): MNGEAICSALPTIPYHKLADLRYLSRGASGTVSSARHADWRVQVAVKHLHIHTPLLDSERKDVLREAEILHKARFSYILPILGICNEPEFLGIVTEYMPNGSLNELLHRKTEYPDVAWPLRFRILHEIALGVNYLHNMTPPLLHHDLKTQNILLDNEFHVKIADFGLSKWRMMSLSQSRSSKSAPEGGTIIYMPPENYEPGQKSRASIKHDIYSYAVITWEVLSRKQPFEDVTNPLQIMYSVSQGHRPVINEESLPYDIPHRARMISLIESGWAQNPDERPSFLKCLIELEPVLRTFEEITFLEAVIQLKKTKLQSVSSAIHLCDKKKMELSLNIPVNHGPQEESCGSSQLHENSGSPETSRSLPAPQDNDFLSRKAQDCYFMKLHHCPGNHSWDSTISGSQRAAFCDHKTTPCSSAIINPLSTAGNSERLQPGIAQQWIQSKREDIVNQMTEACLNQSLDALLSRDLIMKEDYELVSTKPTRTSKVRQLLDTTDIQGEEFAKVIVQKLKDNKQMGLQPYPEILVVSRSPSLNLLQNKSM

[16] = target: 3-phosphoinositide-dependent protein kinase 1 (Homo sapiens) (UniProt O15530); test: Binding affinity to wild-type human full length PDPK1 (M1 to Q556 residues) expressed in bacterial expression system assessed as residual binding level at 1 uM by Kinomescan method relative to control
[17] = target: TGF-beta receptor type-2 (Homo sapiens) (UniProt P37173); test: Binding affinity to wild-type human partial length TGFBR2 (I218 to K567 residues) expressed in bacterial expression system assessed as residual binding level at 1 uM by Kinomescan method relative to control
[18] = target: Insulin-like growth factor 1 receptor (Homo sapiens) (UniProt P08069); test: Binding affinity to wild-type human partial length IGF1R (L972 to D1294 residues) expressed in bacterial expression system assessed as residual binding level at 1 uM by Kinomescan method relative to control
Insulin-like growth factor 1 receptor (Homo sapiens), sequence (P08069 31-736 limits assumed): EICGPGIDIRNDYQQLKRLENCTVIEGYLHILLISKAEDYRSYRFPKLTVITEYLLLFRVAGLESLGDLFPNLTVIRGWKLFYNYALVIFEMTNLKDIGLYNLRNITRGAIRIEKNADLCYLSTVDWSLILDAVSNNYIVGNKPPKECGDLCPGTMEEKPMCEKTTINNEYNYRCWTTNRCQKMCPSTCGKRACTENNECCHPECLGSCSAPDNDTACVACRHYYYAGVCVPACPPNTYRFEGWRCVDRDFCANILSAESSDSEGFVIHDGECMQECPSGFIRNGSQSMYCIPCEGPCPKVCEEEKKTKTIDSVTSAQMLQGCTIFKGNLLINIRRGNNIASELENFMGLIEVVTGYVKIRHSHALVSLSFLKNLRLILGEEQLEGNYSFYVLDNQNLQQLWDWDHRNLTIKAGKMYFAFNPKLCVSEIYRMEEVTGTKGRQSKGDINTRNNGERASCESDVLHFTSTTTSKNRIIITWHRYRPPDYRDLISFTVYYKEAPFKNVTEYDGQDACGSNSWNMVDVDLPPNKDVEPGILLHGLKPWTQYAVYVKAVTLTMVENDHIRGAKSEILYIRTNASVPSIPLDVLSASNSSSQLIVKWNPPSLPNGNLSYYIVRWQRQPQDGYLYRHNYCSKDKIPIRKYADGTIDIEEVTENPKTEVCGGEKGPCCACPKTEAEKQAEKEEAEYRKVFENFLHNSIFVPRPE
Insulin-like growth factor 1 receptor (Homo sapiens), sequence (P08069 741-1367 limits assumed): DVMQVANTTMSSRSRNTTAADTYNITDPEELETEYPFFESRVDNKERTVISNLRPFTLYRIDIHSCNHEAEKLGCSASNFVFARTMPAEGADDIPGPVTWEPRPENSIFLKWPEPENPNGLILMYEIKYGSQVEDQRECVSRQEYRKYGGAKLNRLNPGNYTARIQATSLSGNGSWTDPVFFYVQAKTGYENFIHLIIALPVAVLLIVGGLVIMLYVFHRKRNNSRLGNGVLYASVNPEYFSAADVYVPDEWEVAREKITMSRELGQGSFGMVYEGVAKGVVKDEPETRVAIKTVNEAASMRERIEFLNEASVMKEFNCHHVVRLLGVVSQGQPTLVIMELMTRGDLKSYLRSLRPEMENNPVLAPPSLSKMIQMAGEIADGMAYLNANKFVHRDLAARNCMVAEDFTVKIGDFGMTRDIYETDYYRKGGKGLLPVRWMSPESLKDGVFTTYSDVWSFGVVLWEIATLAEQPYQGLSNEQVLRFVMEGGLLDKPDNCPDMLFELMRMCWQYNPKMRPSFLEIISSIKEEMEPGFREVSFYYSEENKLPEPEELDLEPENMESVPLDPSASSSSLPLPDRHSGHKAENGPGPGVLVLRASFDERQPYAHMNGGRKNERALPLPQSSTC

[19] = target: RAC-beta serine/threonine-protein kinase (Homo sapiens) (UniProt P31751); test: Binding affinity to wild-type human partial length AKT2 expressed in bacterial expression system assessed as residual binding level at 1 uM by Kinomescan method relative to control
[20] = target: Protein-tyrosine kinase 2-beta (Homo sapiens) (UniProt Q14289); test: Binding affinity to wild-type human full length PYK2 (M1 to E967 residues) expressed in bacterial expression system assessed as residual binding level at 1 uM by Kinomescan method relative to control
[21] = target: Mitogen-activated protein kinase kinase kinase 11 (Homo sapiens) (UniProt Q16584); test: Binding affinity to wild-type human partial length MLK3 (I77 to W399 residues) expressed in bacterial expression system assessed as residual binding level at 1 uM by Kinomescan method relative to control
[22] = target: Phosphatidylinositol 4,5-bisphosphate 3-kinase catalytic subunit delta isoform (Homo sapiens) (UniProt O00329); test: Binding affinity to wild-type human partial length PIK3CD (R108 to Q1044 residues) expressed in mammalian expression system assessed as residual binding level at 1 uM by Kinomescan method relative to control
[23] = target: SRSF protein kinase 3 (Homo sapiens) (UniProt Q9UPE1); test: Binding affinity to wild-type human partial length SRPK3 (P41 to P567 residues) expressed in bacterial expression system assessed as residual binding level at 1 uM by Kinomescan method relative to control
[24] = target: Membrane-associated tyrosine- and threonine-specific cdc2-inhibitory kinase (Homo sapiens) (UniProt Q99640); test: Binding affinity to wild-type human partial length PKMYT1 (A88 to G366 residues) expressed in bacterial expression system assessed as residual binding level at 1 uM by Kinomescan method relative to control
Membrane-associated tyrosine- and threonine-specific cdc2-inhibitory kinase (Homo sapiens), sequence (Q99640 whole entry, the tested form may be a part): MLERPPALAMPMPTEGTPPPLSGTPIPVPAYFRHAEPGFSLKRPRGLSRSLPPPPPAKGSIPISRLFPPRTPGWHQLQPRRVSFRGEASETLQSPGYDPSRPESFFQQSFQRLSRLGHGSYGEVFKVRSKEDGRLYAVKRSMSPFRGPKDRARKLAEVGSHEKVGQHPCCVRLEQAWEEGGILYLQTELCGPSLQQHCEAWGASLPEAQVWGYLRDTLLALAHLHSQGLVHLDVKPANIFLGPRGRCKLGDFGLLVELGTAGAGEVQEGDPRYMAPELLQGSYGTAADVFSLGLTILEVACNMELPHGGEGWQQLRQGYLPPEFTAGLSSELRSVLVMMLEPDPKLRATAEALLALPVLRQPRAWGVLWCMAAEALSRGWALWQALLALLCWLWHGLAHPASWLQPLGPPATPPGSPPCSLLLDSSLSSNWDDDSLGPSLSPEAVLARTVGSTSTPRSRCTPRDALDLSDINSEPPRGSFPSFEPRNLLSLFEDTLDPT

CC(C)Nc1sc(C(=O)c2ccc(Cl)s2)c(N)c1C#N
Activity [1]: 92% | Activity [2]: 56% | Activity [3]: 83% | Activity [4]: 97% | Activity [5]: 70% | Activity [6]: 100% | Activity [7]: 94% | Activity [8]: 82% | Activity [9]: 98% | Activity [10]: 74% | Activity [11]: 100% | Activity [12]: 61% | Activity [13]: 59% | Activity [14]: 73% | Activity [15]: 82% | Activity [16]: 84% | Activity [17]: 100% | Activity [18]: 90% | Activity [19]: 93% | Activity [20]: 100% | Activity [21]: 100% | Activity [22]: 78% | Activity [23]: 96% | Activity [24]: 78%
